Test results as given in patent US9993462B2, “Hydantoin derivative-containing pharmaceutical composition” (Chugai Seiyaku Kabushiki Kaisha, priority 2014, dated 2018).

Key:
[1] = system: human articular chondrocytes; test: Proteoglycan synthesis by human articular chondrocytes (35S-sulfate incorporation); assay type: cell-based; details: PTH(1-34) 10^−8 mol/L, cultured for 13 days
Protocol: After purchase of cryopreserved human articular chondrocytes (Lot 2867, Cell Applications Inc.), the cells were thawed in a 37° C. water bath, 15 mL of Basal Medium supplemented with 10% Growth Supplement (Growth Medium, Cell Applications Inc.) was placed in a T75 culture flask (CORNING, Corning Japan K. K.) to culture the cells, and exchanged the next day with 15 mL of Growth Medium; and the cells were cultured for three days. Growth Medium was then removed, and HBSS (Cell Applications Inc.) was used to wash the chondrocyte layer. With addition of 1 mL of trypsin/EDTA solution (Cell Applications Inc.), this was left to stand at room temperature for approximately five minutes, and chondrocytes were detached from the flask. With 10 mL of Neutralization solution (Cell Applications Inc.) added, Bulker-Turk hemocytometer was used to determine the cell count, and the cells were then transferred to a 15-mL test tube for centrifugation (1,200 rpm for five minutes, Tomy Seiko Co., Ltd.) to produce a chondrocyte pellet. The supernatant was discarded, and the cells were placed in a 1.2% sodium alginate solution (25 mmol/L HEPES/150 mmol/L sodium chloride solution, pH7.0) at 2×10^6 cells/mL. This was drawn into a 1-mL syringe (Terumo Corporation) equipped with a 22G injection needle, five drops were added to each well of a 24-well plate (Corning Japan K.K.) containing 2 mL of 102 mmol/L aqueous CaCl2 solution, and this was left to stand for five minutes to form beads. Subsequently, this was washed three times with a 150 mmol/L sodium chloride solution and incubated for one day in Growth Medium, and the medium was exchanged with Basal Medium supplemented with 1% Growth supplement (Cell Applications Inc.). In this procedure, the following factors were added to the medium, and the cells were cultured for 13 days with three times of medium exchange performed per week.
On day 12 of culturing, ^35S-labeled sulfuric acid (PerkinElmer Japan Co., Ltd.) was added at 370 kBq/well, and the medium was collected 24 hours later into a test tube and stored at 4° C. To the alginate gel, a 55 mmol/L sodium citrate solution (Nacalai Tesque, Inc.; 1 mL/well) was added, and this was incubated at 37° C. for ten minutes for solation. This was collected into a microtube (Eppendorf AG) and then centrifuged (1,200 rpm, five minutes) to produce a chondrocyte pellet. […] The glass filter was transferred to a liquid scintillation counter vial, 5 mL of scintillator (Hionic-Fluor, PerkinElmer Japan Co., Ltd.) was added and radioactivity was measured on a liquid scintillation counter (TRI-CARB, PerkinElmer Japan Co., Ltd.).
The remaining 0.1 mL of the digested solution was used for DNA quantification. […]

ovariectomized rats = test: Bone mineral density after six weeks of repeated administration to ovariectomized rats; assay type: in vivo, rat; details: once a day for six weeks, hPTH(1-34) 0.9 nmol/kg subcutaneous
Protocol: Female Crl:CD(SD) rats obtained from Charles River Japan, Inc. were acclimated for one week or longer under standard laboratory conditions of 20° C. to 26° C. and 35% to 75% humidity, and then used in experiments. The rats had free access to tap water and a standard rodent diet (CE-2) (Clea Japan Inc.) containing 1.1% calcium, 1.0% phosphoric acid, and 250 IU/100 g vitamin D3.
Twelve-week old rats were subjected to removal of both ovaries by surgery (OVX) or to sham surgery (Sham). After the body weight was determined in the fourth week after surgery, the rats were divided into groups so that the average body weight of each group of six rats would be even. From the subsequent day after group division, each rat was subjected to repeated administration once a day for six weeks. The solvent for oral administration (vehicle) and the solvent for subcutaneous administration (PC buffer) were respectively administered orally and subcutaneously to rats of the Sham-Control group. Vehicle and PC buffer were orally and subcutaneously administered to rats of the OVX-Control group, respectively. To rats of OVX-Compound 7, the above-mentioned Compound 7 dissolved in the vehicle was orally administered at a dose of 30 mg/kg, and PC buffer was administered subcutaneously. To rats of the OVX-hPTH(1-34) group, the vehicle was orally administered, and hPTH(1-34) dissolved in PC buffer was subcutaneously administered at a dose of 0.9 nmol/kg.
The level of AUC (area under the curve for blood concentration vs. time) was the same as when 20 μg of Forteo®, a therapeutic agent clinically used for osteoporosis, is administered to humans when the administration dose for rats was set to 0.9 nmol/kg. The administration doses were 5 mL/kg for oral administration and 1 mL/kg for subcutaneous administration in all groups. The vehicle used was a composition prepared from 10% dimethyl sulfoxide (Wako Pure Chemical Industries, Ltd.), 10% Kolliphor EL (Sigma-Aldrich Japan), and 10% hydroxypropyl-β-cyclodextrin (Nihon Shokuhin Kako Co., Ltd), whose pH was adjusted to 10 using glycine (Wako Pure Chemical Industries, Ltd.) and sodium hydroxide (Wako Pure Chemical Industries, Ltd.). The PC buffer used was a composition prepared from 25 mmol/L phosphate-citrate buffer, 100 mmol/L NaCl, and 0.05% Tween80, adjusted to pH 5.0. […] The bone mineral densities of the lumbar spine and femur were determined using a dual X-ray bone mineral scanner (DCS-600EX, Aloka). The lumbar spine bone mineral density was determined by measuring the second to fourth lumbar vertebrae; and the femur bone mineral density was determined by vertically dividing the femur into ten parts, and measuring the three parts at the distal end of the knees. […]

[2] = system: rabbit articular chondrocytes; test: Suppression of terminal differentiation of rabbit articular chondrocytes (alkaline phosphatase and alizarin red staining); assay type: cell-based; details: BMP-2 100 ng/mL, Compound 7 10^−7 to 10^−5 mol/L, PTH(1-34) 10^−10 to 10^−7 mol/L
Protocol: NZW rabbits (4-week old, Oriental Yeast Co., Ltd.) were euthanized, and then the articular cartilage of the lower leg bone was collected, and transferred to a 50-mL test tube (Nippon Becton Dickinson Company). PBS (Nacalai Tesque, Inc.) containing 1% trypsin (Wako Pure Chemical Industries, Ltd.) was added to this, and the soft tissue was digested at 37° C. for one hour. This was followed by centrifugation at 1,200 rpm for five minutes, then supernatant was removed and PBS(−) was added to suspend the cartilage tissue. This was centrifuged at 1,200 rpm for five minutes, followed by removal of the supernatant, and washed three times by suspending in PBS(−). This was centrifuged at 1,200 rpm for five minutes, and then the cell pellet was digested by treatment with DMEM (Life Technologies Japan, Ltd.) containing 0.2% Type II collagenase (CLS-2, Worthington Biochemical Corp.) at 37° C. for three hours. Fetal bovine serum (Life Technologies Japan, Ltd.) was added at 10% v/v to stop the reaction, and this was vigorously pipetted using a 10-mL pipette (Nippon Becton Dickinson Company) to isolate the chondrocytes. This was centrifuged at 1,200 rpm for five minutes, followed by removal of the supernatant, and washed three times by suspending in 10% FCS-containing DMEM, and the chondrocytes were seeded at 1×10^4 cells/well on an I-type collagen-coated 96-well culture plate (AGC TECHNO GLASS CO., LTD.). Medium exchange was performed three times a week; and after the cells reached confluency, they were cultured in DMEM containing 100 μg/mL L-ascorbic acid phosphate magnesium salt n-hydrate (Wako Pure Chemical Industries, Ltd.), 10 mmol/L β-glycerophosphate pentahydrate (Wako Pure Chemical Industries, Ltd.) and 10% FCS. The following conditions were used to culture the cells, and alkaline phosphatase staining (cultured for 14 days) and alizarin red staining (cultured for 21 days) were performed to evaluate terminal differentiation of chondrocytes.
Alkaline phosphatase staining was performed by discarding the medium, then washing the chondrocytes once with 200 mmol/L Tris-HCl pH8.2 buffer, staining the cells according to the protocol supplied with the alkaline phosphatase staining kit (Vector Red Alkaline Phosphatase Substrate Kit I, Vector Laboratories, Inc.), and taking photographs with an inverted microscope (Nikon Corporation) (4× objective).
Alizarin red staining was performed by discarding the medium, then washing the chondrocytes twice with PBS, fixing the cells using 100% ethanol (Wako Pure Chemical Industries Ltd.) for 15 minutes, discarding the ethanol, and then staining with 1% alizarin red S (Wako Pure Chemical Industries Ltd.) for 15 minutes, followed by washing with distilled water; and photographs were taken with an inverted microscope.

## hPTH(1-34): Human PTH(1-34) peptide purchased from Peptide Institute, Inc.; positive control [reference compound]
[1]
  radioactivity (proteoglycan synthesis, cpm/μg DNA) relative to the vehicle control: 6 fold
Ovariectomized rats; Compound 7 30 mg/kg oral
  percentage of increase in femur bone mineral density with respect to the OVX-Control group: 8%
Ovariectomized rats
  percentage of increase in lumbar spine bone mineral density with respect to the OVX-Control group: 12%
[2]; cultured for 14 days
  alkaline phosphatase activity (alkaline phosphatase staining): suppressed alkaline phosphatase activity in a concentration-dependent manner
[2]; cultured for 21 days
  alizarin red staining property (calcification): suppressed the alizarin staining property in a concentration-dependent manner
